{"source": "patent US6596738B1", "about": "“Heterocyclic compound, composition and method for inhibiting adenosine deaminase” (Fujisawa Pharmaceutical Co., Ltd., priority 1999, dated 2003)", "key": {"Human ADA [1]": {"target": "T1, Human ADA (Homo sapiens, UniProt P00813)", "T1 construct": "made in house; host or cells: ADA-deficient bacterial strain", "T1 sequence (P00813 1-363)": "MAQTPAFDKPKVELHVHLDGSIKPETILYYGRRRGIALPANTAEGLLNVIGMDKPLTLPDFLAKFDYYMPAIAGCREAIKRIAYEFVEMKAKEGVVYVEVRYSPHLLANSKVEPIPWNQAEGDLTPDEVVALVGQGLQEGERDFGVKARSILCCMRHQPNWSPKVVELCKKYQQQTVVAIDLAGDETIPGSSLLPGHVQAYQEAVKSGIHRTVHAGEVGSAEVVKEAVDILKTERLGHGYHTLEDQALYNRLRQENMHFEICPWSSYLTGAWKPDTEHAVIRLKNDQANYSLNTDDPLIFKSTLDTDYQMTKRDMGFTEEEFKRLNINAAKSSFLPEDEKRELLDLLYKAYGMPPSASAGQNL", "experiment": "Adenosine deaminase (ADA) enzyme assay [2], IC50 of Vmax inhibition", "type": "biochemical", "protocol": "Human ADA was expressed and purified from ADA-deficient bacterial strain. Reaction mixture of a total volume of 200 μl contained 0.16 μg/ml of ADA, 0.1 mM of adenosine and test compound in 10 mM phosphate buffer saline (pH 7.4). The reaction was started by addition of ADA to a mixture of adenosine and test compound."}, "Human ADA [2]": {"target": "T1, Human ADA", "experiment": "Adenosine deaminase (ADA) enzyme assay [1], Ki by Dixon plot", "type": "biochemical", "settings": "25 mU/ml ADA, varying concentrations of adenosine, 10 mM phosphate buffer saline pH 7.4, room temperature, A265 for 5 minutes", "protocol": "The reaction velocity (V) is measured by a change in absorbance at 265 nm (A265) resulting from the deamination of adenosine. Human ADA was expressed and purified from ADA-deficient bacterial strain. Reaction mixtures in a total volume of 200 μl contained 25 mU/ml of ADA and varying concentrations of adenosine and test compounds in 10 mM phosphate buffer saline (pH 7.4). The reaction was started by addition of ADA to a mixture of adenosine and test compound. The reaction was followed at room temperature by recording decrease in A265 for 5 minutes in SPECTRAmax 250 (Molecular Devices, USA) to automatically calculate Vmax. The inhibition constant (Ki) values of test compounds were determined by Dixon plot."}}, "data": [{"smiles": "C[C@H](O)[C@@H](CCc1cccc2ccccc12)n1cncn1", "note": "[Compound A, 1-[(2S,3R)-2-Hydroxy-5-(1-naphthyl)-3-pentyl]-1,2,4-triazole]", "values": [{"measurement": "IC50", "setting": "Human ADA [1]", "result": 0.027, "unit": "µM"}]}, {"smiles": "NC(=O)c1cn([C@@H](CO)CCn2ccc3ccccc32)cn1", "note": "[Example 2, 1-[(R)-1-hydroxy-4-(1-indolyl)-2-butyl]imidazole-4-carboxamide]", "values": [{"measurement": "melting point", "result": "127 to 130", "unit": "°C"}]}, {"smiles": "NC(=O)c1cn([C@@H](CO)CCn2ccc3ccc(NC(=O)CCCc4ccccc4)cc32)cn1", "note": "[Example 6-(2), 1-[(R)-1-Hydroxy-4-(6-(4-phenylbutyrylamino)indol-1-yl)-2-butyl]imidazole-4-carboxamide]", "values": [{"measurement": "Ki", "setting": "Human ADA [2]", "result": 0.016, "unit": "µM"}]}]}
